From patent publication US6248718A, “Lesion-directed dry dosage forms of antibacterial agents for the treatment of acute mucosal infections of the oral cavity” (priority 1999, dated 2001)
“Also recorded” adds a separate entry of the source.

Legend:
[1] = tested on: microbes in the exudate covering the canker ulcer; test: Congo red negative stain microscopy of canker ulcer exudate (Example VI); format: in vivo, human oral flora; conditions: penicillin G potassium 50 mg four times a day, about 48 hours
Protocol: Before the initiation of treatment, a small amount of exudate was scraped off the grayish-white covering of the ulcer with a toothpick and mixed with a drop of aqueous solution of Congo red for a negative stain smear. After the dried smear was exposed to concentrated hydrochloric acid vapor, the negative-stained microorganisms were examined microscopically.
On day 2, about 48 hours after the medication was initiated, the patients collected an early morning sample of saliva immediately after getting up and submitted it to the laboratory for culture. While in the laboratory, a second sample of the residual exudate covering the ulcer was taken from the patient for a post-treatment follow-up microscopy after Congo red negative staining.

[2] = Local concentration of penicillin in saliva after a troche containing 50 mg penicillin G; format: in vivo, human; conditions: 50 mg troche, end of one hour; 60 min
Protocol: The local concentration of penicillin in the saliva was determined as follows. […] This loculated pocket of saliva was not swallowed and was not to be diluted with excess saliva from other parts of the mouth for one hour. Two samples were taken for assay to determine the peak and trough local concentrations of penicillin during the one-hour duration of medicinal treatment. At the time when the troche was completely dissolved and one hour later, aliquots of 10 microliters were pipetted from this pocket of saliva solution at the site of medication, representing the peak level and the trough level of antibiotic concentration, and transferred into 10 ml of distilled water to make a 1:1.000 dilution and into 1 ml of distilled water to make a 1:100 dilution, respectively. The diluted saliva antibiotic solutions were passed through a sterile bacteria-filter to remove any bacterial or fungal contaminants of the oral flora.
For determination of the peak concentration, 1 ml of the bacteria-free filtrate was further diluted with 9 ml of nutrient broth to achieve a 1:10,000 dilution of the saliva. Then a serial two-fold dilution was made of this 1:10,000 diluted saliva sample with an equal volume of nutrient broth in a roll of test tubes to obtain a series of 1 ml aliquots of nutrient broth in which the saliva was diluted to 20,000, 40,000, 80,000, 160,000, 320,000, 640,000, 1,280,000 and 2,560,000 folds respectively. […] Thus the final dilutions of the saliva sample were in the range of 40,000 to 5,120,000 folds.
For determining the trough concentration, the entire 1 ml of the 1:100 diluted saliva filtrate was used to make the serial dilutions so that the final dilutions of saliva sample were in the range of 4,000 to 256,000 folds in the final test culture.
As control standards, a series of test tubes containing 1 ml of nutrient broth with varying concentrations of penicillin G potassium salt ranging from 0.1 units to 10 units/ml were similarly mixed with an equal volume of nutrient broth freshly inoculated with the standard tubes of Staphylococcus aureus. Both the test and control standard tubes were incubated at 37° C. for 18 hours. Among the test tubes showing no gross evidence of bacterial growth, the one containing the highest dilution of saliva and the one containing the least amount of penicillin G were considered as having the identical concentration of penicillin, i.e. the MIC of the staphylococcus aureus.

[3] = Healing of canker sores in patients (Example VI); format: in vivo, human; conditions: 50 mg four times a day, four days course, six patients
Protocol: Six (6) adult, otherwise healthy patients suffering from recurrent minor canker sores were selected for this study from July 10 to Nov. 12, 1998. The drug substance used for this study was crystalline penicillin G potassium salt, U.S.P. grade, purchased from Sigma Chemical Co., St. Louis, Mo. 63178 (Lot No. 57H1195).
On the first or the second day after the patients noticed the formation of the canker ulcers, 50 mg of penicillin G potassium was administered topically with a spatula or the handle of a teaspoon as dry powder directly over the canker ulcers, four times a day, i.e. after breakfast, after lunch, after supper and before bed time. The patients were advised to retain the antibiotic powder and its concentrated solution in a small pocket of saliva at the site of the ulcer and to avoid its excessive dilution by saliva from other parts of the oral cavity for one hour after each application of the antibiotic powder. No food or drink was allowed during this one-hour period.

[4] = tested on: bacteria in human saliva; test: Inhibition of bacterial growth in human saliva in vitro (Example IV); format: cell-based; conditions: for bacterial growth from treated saliva: 1 h, aerobic blood agar
Protocol: For this study, five healthy adult volunteers, three men and two women, were asked to refrain from drinking and eating for two hours after breakfast. At the end of two hours, about five (5) ml of saliva was obtained from the oral cavity of each volunteer. Aliquots of 0.1 ml of saliva were pipetted immediately from each saliva sample and spread over the surface of two 5% sheep blood agar plates with a sterile plastic loop. One inoculated blood agar plate was incubated in an aerobic atmosphere containing 5% CO2, and the other anaerobically at 37° C. for 18 hours, as untreated controls.
Aliquots of 0.2 ml of the saliva from each volunteer's sample were pipetted into sterile test tubes, and labeled from No. 2 to No. 13. Five equal doses of dry powder of the USP grade penicillin G potassium salt, 200 mg each, were weighed and put into five sterile test tubes, all labeled No. 1. The dry powder of antibiotic was dissolved in 0.4 ml saliva obtained from each of the five volunteers to constitute an initial concentration of antibiotic concentration of […] in saliva. An aliquot of 0.2 ml of the saliva antibiotic solution was pipetted from tube No. 1 into tube No. 2. After having been thoroughly mixed, 0.2 ml of the content in tube No. 2 was pipetted to tube No. 3, and so forth continuously in succession to make a serial double dilution of penicillin G potassium solutions in saliva through tube No. 13. Finally, the test tubes contained different concentrations of penicillin G potassium in the saliva of five volunteers, as follows.
The mixtures of antibiotic and saliva in the test tubes were incubated at 37° C. One hour later, an aliquot of 0.1 ml was pipetted from the content of each tube, first dropped in the center of a blood agar plate and then spread to the periphery of the plate surface. The plates were incubated aerobically at 37° C. with 5% carbon dioxide in the atmosphere for 18 hours and were examined for bacterial growth.

CC1(C)S[C@@H]2[C@H](NC(=O)Cc3ccccc3)C(=O)N2[C@H]1C(=O)O [penicillin G potassium]
microbes in exudate after topical treatment [1]: Only very rare cocci were found; also recorded: practically eliminated | local trough concentration in saliva [2]: 7.5 to 15 mg/mL | healing of canker sores [3]: healed completely | bacterial growth from treated saliva ([4]; 1 mg/ml): Scattered bacterial colonies began to appear; also recorded: the inhibition is not complete; also recorded: A few surviving or uninhibited bacteria grew into colonies | bacterial growth from treated saliva ([4]; 2 mg/ml or above): No bacterial colonies were visible; also recorded: practically inhibits the growth of all of the salivary bacteria; also recorded: either destroyed or totally inhibited | MIC ([4]; Homo sapiens, read-out: concentration sufficient to kill or inhibit practically all salivary bacteria): 1000 to 2000 mg/L
